Measured values published in paper PMC8929364, “Metopimazine is primarily metabolized by a liver amidase in humans” (Pharmacology Research & Perspectives, 2021).

How the values were obtained:
[1] = molecular target: T1, rhFMO3 (Homo sapiens, UniProt P31513); experiment: Incubation of MPZ with recombinant FMO: FMO3; format: in vitro ADME; settings: 1 µM MPZ, pH 8.4
T1 construct: purchased Corning Inc
T1 sequence (P31513 1-532): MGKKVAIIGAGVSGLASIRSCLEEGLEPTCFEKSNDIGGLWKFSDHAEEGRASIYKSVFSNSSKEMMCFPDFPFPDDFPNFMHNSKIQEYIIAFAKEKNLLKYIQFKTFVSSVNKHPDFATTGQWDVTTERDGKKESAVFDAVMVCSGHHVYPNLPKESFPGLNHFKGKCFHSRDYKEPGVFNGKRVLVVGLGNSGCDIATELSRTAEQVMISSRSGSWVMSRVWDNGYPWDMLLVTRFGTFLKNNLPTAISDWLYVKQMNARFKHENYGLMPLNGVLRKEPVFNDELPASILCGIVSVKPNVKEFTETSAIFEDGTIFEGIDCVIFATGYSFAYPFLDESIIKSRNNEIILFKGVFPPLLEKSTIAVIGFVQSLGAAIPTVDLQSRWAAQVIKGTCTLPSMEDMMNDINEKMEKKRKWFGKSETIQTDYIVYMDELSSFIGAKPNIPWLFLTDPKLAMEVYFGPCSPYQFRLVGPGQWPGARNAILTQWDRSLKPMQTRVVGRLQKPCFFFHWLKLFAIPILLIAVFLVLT
Description: (§1) MPZ at 1.0 µM was incubated in triplicate with individual recombinant FMO (Supersomes™ for FMO 1, FMO3, and FMO5). Protein concentrations for all rFMO isoforms were 0.05 mg/ml. A positive control (benzydamine, 100 µM) was incubated for 20 min. The reaction mixture containing MPZ or FMO substrate, KPi buffer (pH 8.4), and FMO Supersomes™ was pre‐incubated at 37°C for 3–5 min. All other procedures were the same as described previously. The negative control reactions were incubated absence of NADPH.

[2] = molecular target: T2, rhFMO1 (Homo sapiens, UniProt Q01740); experiment: Incubation of MPZ with recombinant FMO: FMO1; format: in vitro ADME; settings: 1 µM MPZ, pH 8.4
T2 construct: purchased Corning Inc
T2 sequence (Q01740 1-532): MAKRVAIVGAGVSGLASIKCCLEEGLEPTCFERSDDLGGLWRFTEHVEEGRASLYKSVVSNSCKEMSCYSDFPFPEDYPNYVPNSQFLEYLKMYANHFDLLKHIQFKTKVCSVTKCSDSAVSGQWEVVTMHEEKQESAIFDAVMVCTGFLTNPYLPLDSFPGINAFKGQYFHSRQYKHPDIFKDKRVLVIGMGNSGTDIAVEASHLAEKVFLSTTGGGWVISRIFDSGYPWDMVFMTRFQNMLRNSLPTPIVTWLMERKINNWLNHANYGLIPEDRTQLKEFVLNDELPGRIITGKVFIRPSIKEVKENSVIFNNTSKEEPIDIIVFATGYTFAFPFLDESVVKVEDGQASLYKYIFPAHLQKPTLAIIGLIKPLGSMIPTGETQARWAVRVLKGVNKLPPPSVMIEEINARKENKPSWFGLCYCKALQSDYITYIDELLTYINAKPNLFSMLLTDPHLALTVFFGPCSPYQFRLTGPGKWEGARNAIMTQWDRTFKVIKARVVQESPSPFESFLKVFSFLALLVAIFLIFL
Description: as §1

[3] = Incubation of MPZ in human liver S9; format: in vitro ADME; settings: 2.5 µM MPZ, human liver S9 1 mg/ml, NADPH, 60 min
Description: (§2) An initial experiment was conducted with S9 fractions from liver and intestine to assess the role of liver and intestinal enzymes in the metabolism of MPZ. The reaction mixture contained 2.5 µM MPZ, pooled human liver or intestine S9 fraction (1 mg/ml S9 protein), 100 mM KPi buffer (pH 7.4). The reaction mixture was pre‐incubated for 3–5 min at 37°C in a humidified incubator filled with 5% CO2 followed by the addition of NADPH (1 mM) to initiate the reaction. The reaction was incubated for 0 and 60 min. The total percentage of organic solvent in the incubation mixture was ≤0.1%. The reactions were terminated by the addition of sample mixture of acetonitrile and ethanol (90:10, v/v). The positive control substrate, 7‐EC, was incubated in triplicate in an identical manner as MPZ for S9 fractions.
(§3) The degree of disappearance of each analyte was evaluated by comparing the PAR of analyte to IS or concentration in different sampling time points to the PAR of time zero, (t = 0, 100%). The percent of parent remaining values were calculated according to the following equation: %parentremaining=(meanconcentrationorPARateachsamplingtimepoint/meanconcentrationorPARoftimezero)×100

[4] = Incubation of MPZ in human intestine S9; format: in vitro ADME; settings: 2.5 µM MPZ, human intestine S9 1 mg/ml, NADPH, 60 min
Description: as §2, §3

[5] = Incubation of MPZ with human kidney microsomes (HKM); format: in vitro ADME; settings: pH 8.4, NADPH, HKM 0.5 mg/ml, 60 min
Description: MPZ, at 1.0 and 10.0 µM, was incubated with HLM or HKM to determine the contribution of microsomal FMOs on the metabolism of MPZ.
A reaction mixture containing KPi buffer (pH 8.4), HLM or HKM (0.5 mg/ml protein) and MPZ (1.0 and 10.0 µM) was pre‐incubated for 3–5 min at 37°C. The reaction was initiated by the addition of NADPH into the reaction mixture. The reaction was conducted for 0 and 60 min. A positive control (benzydamine, 100 µM) was incubated in duplicate for 0 and 20 min. Parallel incubation was conducted by adding 1 mM methimazole, a non‐specific FMO inhibitor, under identical conditions. Heat‐inactivated microsomes (50°C for at least 5 min) was incubated under identical conditions negative control. All other procedures were the same as described previously.

[6] = tested on: human liver microsomal amidase; experiment: Incubations with heat-treated HLM for microsomal hydrolase/amidase activity, with and without BNPP; format: in vitro ADME; settings: 10 µM MPZ, pH 7.4, 8.4 and 9.4, 60 min
Description: Prior to the reaction for amidase activity, the reaction mixture containing KPi buffer (pH 7.4, 8.4, or 9.4) and HLM was pre‐incubated at 50°C for 5 min to inactivate CYP and FMO activities in HLM. The mixture was placed on ice to cool down. An aliquot was taken out which was considered as t = 0 min incubation. Then 10 µM MPZ was added into the remaining mixture and incubated at 37°C on an orbital shaker for 60 min. A parallel set of incubations was conducted with 10 µM MPZ in the presence at 2 and 16 µM, of BNPP (a known inhibitor of amidase). All reactions were in triplicate. The total percentage of organic solvent in the incubation mixture was ≤0.1%. The reactions were terminated by the addition of chilled acetonitrile: methanol, 90:10, (v/v). The samples were vortex‐mixed and stored at ≤−70°C and were subjected analyzed by LC–MS/MS.

[7] = tested on: human D2 receptor; set-up: method as in earlier work; settings: cited from earlier work

## CS(=O)(=O)c1ccc2c(c1)N(CCCN1CCC(C(N)=O)CC1)c1ccccc1S2 [MPZ, metopimazine]
[1]
  metabolism by rhFMO3: did not metabolize MPZ
[2]
  metabolism by rhFMO1: did not metabolize MPZ
[3]
  percent of MPZ disappeared: approximately 30%
[4]
  metabolism in human intestine S9: virtually no metabolism
[5]
  metabolite formation in HKM: did not produce any metabolites

## CS(=O)(=O)c1ccc2c(c1)N(CCCN1CCC(C(=O)O)CC1)c1ccccc1S2 [MPZA, metopimazine acid]
[6]
  pH dependence of MPZA formation in HLM: faster the higher the pH
[7]
  fold less potent at the human D2 receptor compared to the parent: about 200 fold
